Test results reported in patent US9999222B2, “Herbicidal combination comprising azines” (BASF SE, priority 2014, dated 2018).
Like-named read-outs stand apart in the source and are kept apart here.

Key:
Experiment in all cases: Greenhouse test, pre-emergence treatment
[1] = tested on: EPHHL; type: in vivo, Euphorbia heterophylla; settings: Euphorbia heterophylla, pre-emergence, 480 h, read-out: observed % activity 20 DAT
In short: (§1)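 Seeds were sown in loamy sand with about 3.0% humus, and compounds in water were sprayed immediately after sowing, alone or as combinations formulated as 10% emulsion concentrates. Plants grew under hoods until rooted, at 10-25 °C or 20-35 °C by species, for 2 to 4 weeks. Damage was scored 0-100 (100 = no emergence or complete destruction), and Colby expected values were E=X+Y−(X·Y/100).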

[2] = tested on: ANTAR; type: in vivo; settings: Anthemis arvensis, 480 h, 20 DAT, read-out: observed % activity
In short: as §1

[3] = tested on: ALOMY; type: in vivo, Alopecurus myosuroides; settings: Alopecurus myosuroides, pre-emergence, 480 h, pre-emergence, read-out: observed % activity 20 DAT; for inhibition at 50 g/ha: use rate 50 g ai/ha; for inhibition at 100 g/ha: use rate 100 g ai/ha
Source text: (§2) The culture containers used were plastic flowerpots containing loamy sand with approximately 3.0% of humus as the substrate. The seeds of the test plants were sown separately for each species.
(§3) For the pre-emergence treatment, the active ingredients, which had been suspended or emulsified in water, were applied directly after sowing by means of finely distributing nozzles. The containers were irrigated gently to promote germination and growth and subsequently covered with transparent plastic hoods until the plants had rooted. This cover caused uniform germination of the test plants, unless this had been impaired by the active ingredients.
(§4) Depending on the species, the plants were kept at 10-25° C. or 20-35° C., respectively.
(§5) The test period extended over 2 to 4 weeks. During this time, the plants were tended, and their response to the individual treatments was evaluated.
(§6) Evaluation was carried out using a scale from 0 to 100. 100 means no emergence of the plants, or complete destruction of at least the aerial moieties, and 0 means no damage, or normal course of growth. A moderate herbicidal activity is given at values of at least 60, a good herbicidal activity is given at values of at least 70, and a very good herbicidal activity is given at values of at least 85.
(§7) The respective stated components a and b, and if appropriate, c were formulated as a 10% by weight strength emulsion concentrate and, with addition of the amount of solvent system, introduced into the spray liquor used for applying the active compound.
(§8) In the examples, the solvent used was water.
(§9) In the examples below, using the method of S. R. Colby (1967) “Calculating synergistic and antagonistic responses of herbicide combinations”, Weeds 15, p. 22ff., the value E, which is expected if the activity of the individual active compounds is only additive, was calculated. E=X+Y−(X·Y/100) where • X=percent activity using active compound a at an application rate A; • Y=percent activity using active compound b at an application rate B; • E=expected activity (in %) by a+b at application rates A+B.
(§10) If the value found experimentally is higher than the value E calculated according to Colby, a synergistic effect is present.

[4] = tested on: KCHSC; type: in vivo, Kochia scoparia; settings: Bassia scoparia, pre-emergence, 480 h, pre-emergence, read-out: observed % activity 20 DAT
In short: as §1

[5] = tested on: COMBE; type: in vivo, Commelina benghalensis; settings: Commelina benghalensis, pre-emergence, 480 h
In short: as §1

[6] = tested on: IPOHE; type: in vivo, Ipomoea hederacea; settings: Ipomoea hederacea, 480 h, IPOHE, individual, read-out: observed % activity 20 DAT
In short: as §1

[7] = tested on: CENCY; type: in vivo; settings: 480 h, individual, read-out: observed % activity 20 DAT
[8] = tested on: POLCO; type: in vivo, Polygonum convolvulus; settings: Fallopia convolvulus, pre-emergence, 480 h; for inhibition at 50 g/ha: use rate 50 g ai/ha
In short: as §1

[9] = tested on: ECHCG; type: in vivo, Echinocloa crus-galli; settings: Echinochloa crus-galli, 480 h, ECHCG, use rate 50 g ai/ha, 20 DAT, read-out: observed % activity 20 DAT
Source text: as §2, §3, §4, §5, §6, §7, §8, §9, §10

[10] = tested on: GERPU; type: in vivo, Geranium pusillum; settings: Geranium pusillum, pre-emergence, 480 h
In short: as §1

[11] = tested on: APESV; type: in vivo, Apera spica-venti; settings: Apera spica-venti, 480 h, read-out: observed % activity 20 DAT
Source text: as §2, §3, §4, §5, §6, §7, §8, §9, §10

[12] = tested on: SIDRH; type: in vivo, Sida rhombifolia; settings: Sida rhombifolia, pre-emergence, 480 h
In short: as §1

[13] = tested on: ABUTH; type: in vivo, Abutilon theophrasti; settings: Abutilon theophrasti, 480 h
In short: as §1

[14] = tested on: LOLMU; type: in vivo, Lolium multiflorum; settings: Lolium multiflorum, pre-emergence, 480 h, pre-emergence, read-out: observed % activity 20 DAT
Source text: as §2, §3, §4, §5, §6, §7, §8, §9, §10

[15] = 20 g ai/ha, 20 DAT, read-out: observed % activity
[16] = 40 g ai/ha, 20 DAT, read-out: observed % activity
[17] = read-out: observed % activity 20 DAT

SMILES: COc1c(Cl)ccc(Cl)c1C(=O)O [DICAMBA, dicamba]
- inhibition at 35 g/ha [1]: 20%
- inhibition at 20 g/ha ([2]; 20 g ai/ha): 30%
- inhibition at 40 g/ha ([2]; 40 g ai/ha): 30%
- inhibition at 50 g/ha ([3]; ALOMY, 20 DAT): 20%
- inhibition at 100 g/ha ([3]; ALOMY, 20 DAT): 40%
- inhibition at 50 g/ha [3]: 20%
- inhibition at 100 g/ha [3]: 40%
- inhibition at 100 g/ha ([4]; use rate 100 g ai/ha): 90%
- inhibition at 35 g/ha [4]: 75%
- inhibition at 50 g/ha [4]: 85%
- inhibition at 70 g/ha [4]: 75%
- inhibition at 20 g/ha [5, 15]: 45%
- inhibition at 40 g/ha [5, 16]: 65%
- inhibition at 70 g/ha ([5]; COMBE, individual, use rate 70 g ai/ha, read-out: observed % activity 20 DAT): 50%
- inhibition at 35 g/ha [5, 17]: 15%
- inhibition at 35 g/ha ([6]; use rate 35 g ai/ha): 40%
- inhibition at 70 g/ha ([6]; use rate 70 g ai/ha): 40%
- inhibition at 35 g/ha ([7]; use rate 35 g ai/ha): 0%
- inhibition at 70 g/ha ([7]; use rate 70 g ai/ha): 30%
- inhibition at 20 g/ha [8, 15]: 35%
- inhibition at 40 g/ha [8, 16]: 90%
- inhibition at 50 g/ha ([8]; POLCO, 20 DAT, read-out: observed % activity 20 DAT): 40%
- inhibition at 50 g/ha [8, 17]: 40%
- inhibition at 100 g/ha ([8]; use rate 100 g ai/ha, read-out: observed % activity 20 DAT): 60%
- inhibition at 50 g/ha [9]: 0%
- inhibition at 20 g/ha [10, 15]: 20%
- inhibition at 40 g/ha [10, 16]: 85%
- inhibition at 35 g/ha ([10]; GERPU, individual, use rate 35 g ai/ha, read-out: observed % activity 20 DAT): 40%
- inhibition at 100 g/ha [11]: 35%
- inhibition at 20 g/ha [12, 15]: 45%
- inhibition at 40 g/ha [12, 16]: 80%
- inhibition at 35 g/ha ([12]; SIDRH, individual, use rate 35 g ai/ha, read-out: observed % activity 20 DAT): 20%
- inhibition at 70 g/ha [12, 17]: 15%
- inhibition at 20 g/ha [13, 15]: 60%
- inhibition at 40 g/ha [13, 16]: 80%
- inhibition at 35 g/ha ([13]; ABUTH, individual, use rate 35 g ai/ha, read-out: observed % activity 20 DAT): 0%
- inhibition at 70 g/ha ([13]; ABUTH, individual, use rate 70 g ai/ha, read-out: observed % activity 20 DAT): 20%
- inhibition at 50 g/ha ([14]; LOLMU, use rate 50 g ai/ha, 20 DAT): 40%
- inhibition at 100 g/ha [14]: 45%
